# Assay results reported in patent US10399966B2, “Compounds for treatment of trypanosomes and neurological pathogens and uses thereof” (The University of North Carolina at Chapel Hill, priority 2016, dated 2019).
# Values joined by “and” are separate entries in the source; they are usually repeats but may differ in a detail not shown here. Identical values can stand only once.
# System: T. b. rhodesiense STIB900
# Assay: Mouse efficacy model of acute T. brucei infection
# Assay type: in vivo
# Settings: 50 mg/kg po b.i.d. x 4 days from day 2, no detectable parasitemia 60 days post-infection
# Method: For acute efficacy studies in mice, experiments were carried out using the standard operating procedure used by WHO screening centers and done in compliance with the University of Washington Institutional Animal Care and Use Committee (IACUC) approved protocol. […] The test compound was administered by oral gavage at 50 mg/kg every 12 h from day 2 to day 5, for a total of 8 doses in a 200 μL volume of a vehicle consisting of DMSO (5%), Tween 80 (7%), and EtOH (3%) in physiological saline (0.9%) solution. Parasitemia was monitored via microscopic analysis of tail blood for 60 d post-infection, or until parasites were detected. Mice were removed from the experiment once parasites were detected in the blood. […] Efficacy PK blood samples were collected from three of the five mice prior to dose 7, and at 1 h and 6 h post-dose.
structure (smiles),measurement,value
"O=C(Nc1ccc2sc(-c3ccc(F)c(F)c3)nc2c1)N1CC[C@H](F)C1 [Compound 1, (S)-2-(3,4-Difluorophenyl)-5-(3-fluoro-N-pyrrolidylamido)benzothiazole]",mice cured (cures),5 of 5 and 5/5
